Source: US20020055528A1, “Artemisinin analogs having antimalarial, antiproliferative, and antitumor activities and chemoselective methods of making the same” (priority 1999, published 2002)

Tests used:
Type in all cases: cell-based
[1] = test system: murine keratinocyte cell line PE; assay: Growth inhibition of PE cells, MTT assay; conditions: 100 nanomolar; compared with calcitriol; FIG. 5
Description: To determine the inhibitory effect of the compositions of the present invention on cell proliferation, screening assays were performed on a murine keratinocyte cell line PE. Cell line PE was chosen for its particular sensitivity to the induction of omithine decarboxylase (ODC) activity by the extensively characterized tumor promoter TPA. Cell line PE was derived from a papilloma-induced in female SENCAR mice by a standard skin initiation/promotion protocol, see Yuspa, S. H., et al., Carcinogenesis, 7:949-958 (1986). PE cell culture medium consisted of Eagle's minimal essential medium without calcium chloride (Whittaker Bioproducts, Walkersville, Mass.) supplemented with 8% chelexed fetal calf serum and 1% antibiotic-antimycotic (Gibco BRL) and the addition of CaCI2 to 0.05 mM Ca^++
MTT [3-(4,5-dimethylthiazol-2-yl)-2,5-diphenyltetraxolium bromide] was purchased from Sigma Chemical Co. (St. Louis, Mo.), and TPA was supplied by L.C. Services (Woburn, Mass.). L-[^14C]omithine ([…]) was from Amersham/Searle Corp. (Arlington Heights, Ill.). Chemical solvents used in all assays of biological activity were of the highest grade commercially available.
Growth curves, shown in FIG. 5, for PE cells treated with calcitriol and the C-10 carbon-substituted dimers VII-f, VII-g and VII-h generated by assay for the reduction of the tetrazolium-based compound MTT, see Charmichael, et al., Cancer Res., 47:936-942 (1987). A mitochondrial dehydrogenase reduces MTT to a blue formazan product with an absorbance maximum of 505 nm in DMSO; the number of viable cells can thus be determined spectrophotometrically. PE cells were seeded at a density of 5,000 cells/well in 50 IL of medium into 96-well microtiter plates. Twelve hours later, the medium was removed, and cells were treated with 100 μL of fresh medium into which the appropriate amount of calcitriol or analog dissolved in dimethyl sulfoxide (DMSO) had been added, with the concentration of DMSO held constant at 0.1 %. […] At 24-hour intervals following the initial treatment of the cells with compounds, 0.1 mg (50 μL of a 2 mg/mL solution) of MTT was added to each well. After 4 hours, the MTT was removed and DMSO added to dissolve the blue formazan dye. Using a microtiter plate reader, the A505 was then determined and cell number calculated from blank-subtracted absorbance values.

K-562 = assay: NCI 60 cell line screen (SRB), Leukemia
RPMI-8226 = assay: NCI 60 cell line screen (SRB), Leukemia
NCI-H226 = assay: NCI 60 cell line screen (SRB), Non-Small Cell Lung Cancer
NCI-H460 = assay: as above
COLO 205 = assay: NCI 60 cell line screen (SRB), Colon Cancer
HCT-116 = assay: NCI 60 cell line screen (SRB), Colon Cancer
SW-620 = assay: NCI 60 cell line screen (SRB), Colon Cancer
SF-268 = assay: NCI 60 cell line screen (SRB), CNS Cancer
SK-MEL2 = assay: NCI 60 cell line screen (SRB), Melanoma
UACC-257 = assay: NCI 60 cell line screen (SRB), Melanoma
UACC-62 = assay: NCI 60 cell line screen (SRB), Melanoma
OVCAR-4 = assay: NCI 60 cell line screen (SRB), Ovarian Cancer
SK-OV-3 = assay: NCI 60 cell line screen (SRB), Ovarian Cancer
CAKI-1 = assay: NCI 60 cell line screen (SRB), Renal Cancer
PC-3 = assay: NCI 60 cell line screen (SRB), Prostate Cancer
MCF7 = assay: NCI 60 cell line screen (SRB), Breast Cancer
MDA-MB231/ATCC = assay: NCI 60 cell line screen (SRB), Breast Cancer; conditions: MDA- (first line of MDA-MB231/ATCC)
[2] = test system: MB231/ATCC (second line of the wrapped label, with values of its own); assay: NCI 60 cell line screen (SRB), Breast Cancer
HS 578T = assay: NCI 60 cell line screen (SRB), Breast Cancer
MDA-MB-435 = assay: NCI 60 cell line screen (SRB), Breast Cancer
MDA-N = assay: NCI 60 cell line screen (SRB), Breast Cancer

## CC1=C(C=Cc2cccc(C=CC3=C(C)C4CCC(C)C5CCC6(C)OOC45C(O3)O6)c2)OC2OC3(C)CCC4C(C)CCC1C24OO3 (stereo not shown) [VII-g]
[1]
  antiproliferative activity in words: at least as antiproliferative as calcitriol
K-562; PG=0
  Log10TGI: −7.31 log10M
K-562; PG=+50
  Log10GI50: −7.31 log10M
K-562; Table IV (LC50, PG=−50)
  Log10GI50: >−4.00 log10M
RPMI-8226; PG=0
  Log10TGI: −7.25 log10M
RPMI-8226; PG=+50
  Log10GI50: −7.25 log10M
RPMI-8226; Table IV (LC50, PG=−50)
  Log10GI50: >−4.00 log10M
NCI-H226; PG=0
  Log10TGI: >−4.00 log10M
NCI-H226; PG=+50
  Log10GI50: −4.91 log10M
NCI-H226; Table IV (LC50, PG=−50)
  Log10GI50: >−4.00 log10M
NCI-H460; PG=0
  Log10TGI: >−4.00 log10M
NCI-H460; PG=+50
  Log10 GI50 or Log10 LC50: −5.13 log10M
COLO 205; PG=0
  Log10TGI: −6.82 log10M
COLO 205; PG=+50
  Log10GI50: −7.50 log10M
COLO 205; Table IV (LC50, PG=−50)
  Log10GI50: −4.96 log10M
HCT-116; PG=0
  Log10TGI: >−4.00 log10M
HCT-116; PG=+50
  Log10 GI50 (PG=+50) or Log10 LC50 (PG=−50), as given per row condition: −7.13 log10M
HCT-116; Table IV (LC50, PG=−50)
  Log10 GI50 (PG=+50) or Log10 LC50 (PG=−50), as given per row condition: >−4.00 log10M
SW-620; PG=0
  Log10TGI: >−4.00 log10M
SW-620; PG=+50
  Log10GI50: −7.22 log10M
SF-268; PG=0
  Log10TGI: >−4.00 log10M
SF-268; PG=+50
  Log10GI50: −6.42 log10M
SK-MEL2; PG=0
  Log10TGI: >−4.00 log10M
SK-MEL2; PG=+50
  Log10 GI50 or LC50 (per conditions): −6.39 log10M
SK-MEL2; Table IV (LC50, PG=−50)
  Log10 GI50 or LC50 (per conditions): >−4.00 log10M
UACC-257; PG=0
  Log10TGI: −4.58 log10M
UACC-257; PG=+50
  Log10 GI50 (PG=+50) or Log10 LC50 (PG=−50): −7.09 log10M
UACC-257; Table IV (LC50, PG=−50)
  Log10 GI50 (PG=+50) or Log10 LC50 (PG=−50): >−4.00 log10M
UACC-62; PG=0
  Log10TGI: >−4.00 log10M
UACC-62; PG=+50
  Log10GI50: −5.46 log10M
UACC-62; Table IV (LC50, PG=−50)
  Log10GI50: >−4.00 log10M
OVCAR-4; OVCAR-4, PG=+50
  Log10GI50: −6.96 log10M
OVCAR-4; Table IV (LC50, PG=−50), OVCAR−4
  Log10GI50: >−4.00 log10M
SK-OV-3; PG=0
  Log10TGI: >−4.00 log10M
SK-OV-3; PG=+50
  Log10GI50: −5.05 log10M
SK-OV-3; Table IV (LC50, PG=−50)
  Log10GI50: >−4.00 log10M
CAKI-1; PG=+50
  Log10GI50: −6.22 log10M
CAKI-1; Table IV (LC50, PG=−50)
  Log10GI50: >−4.00 log10M
PC-3; PG=0
  Log10TGI: >−4.00 log10M
PC-3; PG=+50
  Log10 GI50 (PG=+50) or LC50 (PG=−50): −7.32 log10M
PC-3; Table IV (LC50, PG=−50)
  Log10 GI50 (PG=+50) or LC50 (PG=−50): >−4.00 log10M
MCF7; PG=0
  Log10TGI: >−4.00 log10M
MCF7; PG=+50
  Log10GI50: −6.63 log10M
MCF7; Table IV (LC50, PG=−50)
  Log10GI50: >−4.00 log10M
MDA-MB231/ATCC; PG=0
  Log10TGI: −4.74 log10M
MDA-MB231/ATCC; PG=+50
  Log10 GI50 or LC50 (per conditions): −6.07 log10M
MDA-MB231/ATCC; Table IV (LC50, PG=−50)
  Log10 GI50 or LC50 (per conditions): >−4.00 log10M
[2]; PG=+50
  Log10GI50: −7.10 log10M
[2]; Table IV (LC50, PG=−50)
  Log10GI50: >−4.00 log10M
HS 578T; PG=0
  Log10TGI: −4.32 log10M
HS 578T; PG=+50
  Log10GI50: −7.14 log10M
HS 578T; Table IV (LC50, PG=−50)
  Log10GI50: >−4.00 log10M
MDA-MB-435; MDA-MB-435, PG=0
  Log10TGI: >−4.00 log10M
MDA-MB-435; MDA-MB−435, PG=+50
  Log10GI50: −6.57 log10M
MDA-MB-435; Table IV (LC50, PG=−50), MDA-MB-435
  Log10GI50: >−4.00 log10M
MDA-N; PG=0
  Log10TGI: −4.83 log10M
MDA-N; PG=+50
  Log10GI50: −6.82 log10M
MDA-N; Table IV (LC50, PG=−50)
  Log10GI50: >−4.00 log10M
